# Where a name gives a salt, the structure may show the parent alone.
# How the values were obtained:
# ^51Cr-labelled K562 = assay: Natural killer (NK) activity of patient B, cytotoxic activity against 51Cr-labelled target cells; format: in vivo, human
# Description: (§1) An injection containing 100 mg of a test compound was intravenously administered to two patients with CFS (A, B), continuously, for 14 days. The measurement of DHAS concentration in plasma was conducted before administration and 13 hours after administration with respect to the first and second days, while the measurement was conducted before administration with regard to the third, fifth, eighth, eleventh and fourteenth days. On the fourteenth day from the day on which first administration was conducted, the patients were questioned about lassitude, weakness and psychoneurotic symptom.
# With regard to the patient B, a natural killer (NK) activity was measured after administration on the first day and before administration on the fifteenth day. The measurement of the NK activity was conducted in accordance with the method described in Later Biological Experimental Course, No. 5, Process for Study of Immunobiochemistry (Incorporation of The Japanese Biochemistry Society ed., published by Tokyo Kagaku Dojin Co.), page 186. That is, the NK activity was measured by using, as an indication, a cytotoxic activity determined by using ^51Cr-labelled K562 as a target cell. Incidentally, a ratio of effector cell to target cell (E/T ratio) was set at 10:1 or 20:1.
# [1] = Measurement of DHAS concentration in plasma of patients with CFS given the injection intravenously; format: in vivo; settings: human, iv, 100 mg, 100 mg intravenously daily for 14 days; for concentration at 13 h: 13 hours after administration; for concentration at 48 h / concentration at 72 h / concentration at 120 h / concentration at 192 h / concentration at 264 h / concentration at 336 h: before administration; for concentration at 72 h: 3 days; for concentration at 120 h: 5 days; for concentration at 192 h: 8 days; for concentration at 264 h: 11 days; for concentration at 336 h: 14 days
# Description: as §1
# patients with CFS = assay: Questioning of patients with CFS about lassitude, weakness and psychoneurotic symptom; format: in vivo, human; settings: 100 mg intravenously daily for 14 days
# Description: as §1
smiles,measurement,setting,value
"C[C@]12CC[C@H](OS(=O)(=O)O)CC1=CC[C@@H]1[C@@H]2CC[C@]2(C)C(=O)CC[C@@H]12 [Sodium salt of DHAS, dehydroepiandrosterone sulfate]",NK activity (%),"^51Cr-labelled K562; E/T ratio 10:1, after administration on the fourteenth day (before administration on the first day: 7.2)",12.1%
same,NK activity (%),"^51Cr-labelled K562; E/T ratio 20:1, after administration on the fourteenth day (before administration on the first day: 13.7)",18.5%
same,concentration at 13 h,"[1]; patient A, 1 day",6360 ng/mL
same,concentration at 13 h,"[1]; patient A, 2 days",6340 ng/mL
same,concentration at 48 h,"[1]; patient A, 2 days",2460 ng/mL
same,concentration at 72 h,[1]; patient A,2460 ng/mL
same,concentration at 120 h,[1]; patient A,2160 ng/mL
same,concentration at 192 h,[1]; patient A,2140 ng/mL
same,concentration at 264 h,[1]; patient A,2110 ng/mL
same,concentration at 336 h,[1]; patient A,3000 ng/mL
same,concentration at 13 h,"[1]; patient B, 1 day",8900 ng/mL
same,concentration at 13 h,"[1]; patient B, 2 days",7650 ng/mL
same,concentration at 48 h,"[1]; patient B, 2 days",2680 ng/mL
same,concentration at 72 h,[1]; patient B,2820 ng/mL
same,concentration at 120 h,[1]; patient B,4140 ng/mL
same,concentration at 192 h,[1]; patient B,2050 ng/mL
same,concentration at 264 h,[1]; patient B,2480 ng/mL
same,concentration at 336 h,[1]; patient B,2800 ng/mL
same,Degree of improvement on the fourteenth day Lassitude,patients with CFS; patient A,improved
same,Degree of improvement on the fourteenth day Psychoneurotic symptom,patients with CFS; patient A,Improved
same,Degree of improvement on the fourteenth day Weakness,patients with CFS; patient A,Improved
same,Degree of improvement on the fourteenth day Lassitude,patients with CFS; patient B,improved
same,Degree of improvement on the fourteenth day Psychoneurotic symptom,patients with CFS; patient B,Improved
same,Degree of improvement on the fourteenth day Weakness,patients with CFS; patient B,Improved
